Reference: US20260345605A1, “THERAPEUTIC AGENTS FOR HEART FAILURE” (Ottawa Hospital Research Institute, priority 2023, published 2026)
One block for each compound: values may come before it.

How the values were obtained:
[1] = tested on: NT Pro-BNP (iCell Cardiomyocyte); assay: NT Pro-BNP ELISA in iCell Cardiomyocyte supernatants; type: cell-based, human; settings: 24 hour; for Mean NT Pro-BNP levels: iCell Cardiomyocyte, UT 2407.521; for Pro-NT BNP levels compared to UT and CT1 treated cells: iCell cardiomyocytes
Description: A secondary screening was performed with 10 drugs identified from primary screening for their ability to induce physiological remodeling using morphometric analysis and measuring the levels of B-type natriuretic peptide (BNP), as a surrogate indicator of the hypertrophic response using ELISA. The compounds were selected based on the highly enriched targets identified in the drug set enrichment analysis with a high Z score. Cryopreserved iPS cell-derived cardiomyocytes (“iCell Cardiomyocytes”) obtained from Cellular Dynamics International (CDI, Madison, WI) were used as a cell model to perform the screening.
Pro-NT BNP levels in the culture media were measured following the 24 hour treatment using the Human NT Pro-BNP DuoSet ELISA kit (R&D Systems, Minnesota USA) as per the manufacturer's instruction. […] The plates were read on BMG BioTek Molecular Devices SpectraMax Microplate Reader at 450 nm to obtain the optical density followed by reading at 540 nm for wavelength correction.
Protein levels were identified by plotting a 4 parametric logistic regression curve using the standards provided with the kit.

aurora kinase B = assay: pAurkB S727 immunofluorescence and remodeling in NRVM; type: cell-based, neonatal rat; settings: PE 100 μM
Description: Immunofluorescence was performed to validate and assess the effect of aurora B kinase inhibitor on cardiomyocyte remodeling. NRVMs were plated at a density of 2.5×10^4 cells onto 25 mm diameter collagen coated coverslip. Primary cardiomyocytes were incubated with control serum-free medium (Ctrl, SF medium), hCT1 (0.5 nM), PE (100 μM), AZD1152-HQPA (1.5 μM) and assessed for aurora kinase B activation using pAurkB s727 antibody staining. The cells were treated with a combination of PE and AZD1152 HQPA where the cells were stimulated with the drug for 4 hours following the PE treatment for 24 hours.
Post treatment, the cells were washed, fixed, and were subjected to sequential staining of primary antibodies a Actinin and phospho-AurkB (S727). The images were acquired using the Zeiss AxioVision SE64 Imaging software and analyzed using the ImageJ2 software. Immunofluorescence was used to detect α-actinin, pAurkb S727, and nuclei were stained with DAPI.

[2] = tested on: phospho-Histone 3 (Ser10); assay: phospho-Histone 3 (pH3 Ser10) staining in NRVM; type: cell-based, neonatal rat; settings: PE
Description: A one-way ANOVA test performed to assess statistical significance across treatment groups.
The effect of AZD1152-HQPA on cardiac remodeling was further validated using the phospho-Histone 3 (pH3 Ser10) staining which is the downstream target of aurora kinase B. The NRVMs were plated at a density of 2.5×10^4 cells onto 25 mm diameter collagen coated coverslip. The cells were treated with controls (hCT1, PE), AZD1152-HQPA followed by a combination of PE and AZD1152-HQPA.
Post treatment, the cells were washed, fixed, and were subjected to sequential staining of primary antibodies a Actinin and phospho-Histone 3 (Ser10). The images were acquired using the Zeiss AxioVision SE64 Imaging software and analyzed using the ImageJ software. […] The data are represented as Mean±Standard deviation.

collagen type I = assay: Collagen type I immunofluorescence in NRVM; type: cell-based, neonatal rat
Description: Primary NRVMs were seeded at a density of 2.7×10^5 cells directly onto 25 mm diameter collagen-coated glass coverslips. The treatments with control (PE) and drugs LY283519 were performed for 24 hours. […] Post treatment, the cells were washed three times in PBS followed by fixation in 4% paraformaldehyde for 30 min. Cells were then permeabilized in blocking buffer (1% bovine serum albumin (BSA), 2% normal goat serum, 0.4% Tx-100 in PBS) for 15 min and were incubated for 2 h at room temperature with primary a Actinin and collagen type I antibody, followed by three successive washes in PBS in a humidified chamber. Cells were then blocked again in blocking buffer for 15 min followed by a 1-hour incubation in fluorescently conjugated secondary antibody. Cells were then washed again in PBS and the nuclei were counterstained with 4′,6-diamidino-2-phenylindole (DAPI). The cells were mounted onto microscope slides with Dako Cytomation fluorescent mounting medium (Dako). Digital fluorescent images were obtained using the Zeiss AxioVision SE64 Imaging software and analyzed using ImageJ2 software.

[3] = tested on: phenylephrine induced left ventricular hypertrophy; assay: Phenylephrine-induced left ventricular hypertrophy rat model: heart weight and echocardiography; type: in vivo, Sprague Dawley rat
Description: Animal Model Preparation. Sprague Dawley rats were continuously treated with phenylephrine (PE), an α-adrenergic agonist that causes vasoconstriction leading to increased afterload and decreased ventricular function, to create a left-ventricular dysfunction animal model. […] For chronic infusion of phenylephrine, Alzet® mini-osmotic pumps (2002, Durect® Corp) containing Phenylephrine (PE) (10 mg/kg/day) or PBS vehicle were surgically implanted dorsally and subcutaneously in each Sprague Dawley rat under isoflurane anaesthesia. The animals were allowed to develop left ventricular hypertrophy for 2 weeks following the osmotic pump implantation.
Echocardiography was performed, the animals were sacrificed at 3 weeks endpoint and the blood and tissue were harvested for further analysis.

[4] = tested on: phenylephrine induced left ventricular hypertrophy; settings: LV; HF markers; cited from earlier work
cardiac fibrosis = settings: phenylephrine, reported; cited from earlier work
cardiomyocytes = assay: Overall observation on remodeling of treated cardiomyocytes; type: cell-based
Cyclin D1/CDK4 = settings: role: inhibitor; cited from earlier work
CDK6 = settings: role: inhibitor; cited from earlier work
Rb phosphorylation = settings: cited from earlier work
[5] = single treatment, 24 hours, vs control
[6] = systole and diastole, PE compared to control and LY2835219 group
[7] = LY2835219 alone and in rats subjected to phenylephrine
[8] = PE treated rats, 3 weeks LY2835219 75 mg/kg/day oral

AurkB activation (aurora kinase B): AurkB activation
SMILES: CNC[C@H](O)c1cccc(O)c1 [PE, phenylephrine]
Mean NT Pro-BNP levels ([1]; control PE): 3236.015 pg/mL
Pro-NT BNP levels compared to UT and CT1 treated cells [1]: significantly elevated levels
cardiomyocyte remodeling (aurora kinase B): concentric hypertrophic remodeling was observed
pH3 Ser10 staining [2]: Increased pH3 Ser10 staining
expression of collagen type I (collagen type I; [5]): increased expression of type I collagen compared to control
Heart Weight/Body Weight ratio ([3]; PE 10 mg/kg/day, compared to sham (PBS), LY2835219 alone, and PE 2 weeks followed by 3 weeks LY2835219): significantly increased
heart size (whole heart image) ([3]; PE treated group compared to control and drug treatment group, FIG. 14): enlarged
cardiac output ([3]; PE treated rats, after 2 weeks): decreased
ejection fraction ([3]; PE treated rats, after 2 weeks): decreased
percentage fractional shortening ([3]; PE treated rats, after 2 weeks): decreased
stroke volume ([3]; PE treated rats, after 2 weeks): decreased
left ventricular internal diameter ([3]; PE treatment group): reduced
thickness of left ventricular anterior wall [3, 6]: increased thickness
thickness of left ventricular posterior wall [3, 6]: increased thickness
thickness of septal wall [3, 6]: increased thickness
effect of phenylephrine on left ventricle (background) [4]: myocardial hypertrophy of the LV, increased LV weight, systolic dysfunction, and increased expression of HF markers atrial natriuretic peptide and brain natriuretic peptide
pathways involved in cardiac fibrosis (background) (cardiac fibrosis): stimulate pathways involved in cardiac fibrosis

SMILES: CCN1CCN(Cc2ccc(Nc3ncc(F)c(-c4cc(F)c5nc(C)n(C(C)C)c5c4)n3)nc2)CC1 [LY2835219]
Mean NT Pro-BNP levels ([1]; drug 0.25 μm): 1232.484 pg/mL
Mean NT Pro-BNP levels ([1]; drug 0.5 μm): 1226.226 pg/mL
Mean NT Pro-BNP levels ([1]; drug 2.5 μm): 1747.475 pg/mL
Pro-NT BNP levels compared to UT and CT1 treated cells [1]: comparable and/or reduced BNP levels
expression of collagen type I (collagen type I; PE for 24 hrs followed by LY2835219 for 24 hrs): decreased expression of collagen type I
expression of collagen type I (collagen type I; [5]): decrease in expression of collagen type I
effect in phenylephrine induced left ventricular hypertrophy ([3]; LY2835219 75 mg/kg/day oral, 3 weeks): anti-hypertrophic effect
cardiac output [3, 7]: improved
ejection fraction [3, 7]: improved
fractional shortening [3, 7]: improved
stroke volume [3, 7]: improved
PE effect on left ventricular internal diameter ([3]; PE 2 weeks followed by LY2835219 3 weeks, 75 mg/kg/day oral): reversed
cardiac function (ejection fraction, fractional shortening, stroke volume, cardiac output) ([3]; PE treated rats subjected to LY2835219 for 3 weeks, compared with control rats and PE treated rats): significantly enhanced cardiac function
PE effect on thickness of left ventricular anterior wall [3, 8]: reversed
PE effect on thickness of left ventricular posterior wall [3, 8]: reversed
PE effect on thickness of septal wall [3, 8]: reversed
cardiomyocyte remodeling (cardiomyocytes): adaptive and compensatory remodeling that resembles a physiologic growth response, adding sarcomeres in series
inhibition of Cyclin D1/CDK4 (Cyclin D1/CDK4): low nanomolar potency
inhibition of CDK6 (CDK6): low nanomolar potency
Rb phosphorylation (Rb phosphorylation): inhibits Rb phosphorylation
cell cycle arrest (Rb phosphorylation): G1 arrest
